Experimental data: patent publication US20230114728A1 (Venatorx Pharmaceuticals, Inc., priority 2019, published 2023)
≈ marks a conversion by molar mass, not a printed value.

Tests used:
Assay in all cases: Broth microdilution MIC in CAMHB
Format in all cases: cell-based
E. coli AG100 = settings: Escherichia coli; E. coli AG100 (wild-type parent); MHB; read-out: Minimum Inhibitory Concentration, E. coli AG100
Procedure, shortened: (§1)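 Hyper-permeable or efflux-deficient strains serve to probe outer-membrane penetration. Growth inhibition is scored visually after 16-20 h at 37° C in CAMHB, starting from 2-8×10^5 CFU/mL.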

[1] = tested on: K. pneumoniae UMM producing SHV-5 and KPC-2; settings: Klebsiella pneumoniae, read-out: Minimum Inhibitory Concentration, K. pneumoniae UMM
Procedure, shortened: as §1

E. coli D22 = settings: Escherichia coli; E. coli D22 (hyper-permeable); MHB; read-out: Minimum Inhibitory Concentration, E. coli D22
Procedure, shortened: as §1

E. coli 901C = settings: Escherichia coli; E. coli 901C (hyper-permeable); MHB; read-out: Minimum Inhibitory Concentration, E. coli 901C
Procedure, shortened: as §1

P. aeruginosa ATCC 35151 = settings: Pseudomonas aeruginosa, ATCC35151; MHB; hyper-permeable strain; read-out: Minimum Inhibitory Concentration, P. aeruginosa ATCC 35151
Procedure, shortened: as §1

E. coli AG100A = settings: Escherichia coli, read-out: Minimum Inhibitory Concentration, E. coli AG100A
Procedure, shortened: as §1

[2] = tested on: P. aeruginosa (ΔmexAB-oprM); settings: Pseudomonas aeruginosa, read-out: Minimum Inhibitory Concentration, P. aeruginosa ΔmexAB-OprM
Procedure, shortened: as §1

E. coli ATCC 25922 = settings: Escherichia coli, ATCC25922; E. coli ATCC 25922; MHB; read-out: Minimum Inhibitory Concentration, E. coli 25922
Procedure, shortened: as §1

[3] = tested on: K. pneumoniae 848844 producing SHV-11 and KPC-2; settings: Klebsiella pneumoniae, read-out: Minimum Inhibitory Concentration, K. pneumoniae 848844
Procedure, shortened: as §1

[4] = tested on: K. pneumoniae SI-117 producing VIM-1; settings: Klebsiella pneumoniae, read-out: Minimum Inhibitory Concentration, K. pneumoniae SI-117
Procedure, shortened: as §1

P. aeruginosa ATCC 27853 = settings: Pseudomonas aeruginosa, ATCC27853; MHB; read-out: Minimum Inhibitory Concentration, P. aeruginosa ATCC 27853
Procedure, shortened: as §1

A. baumannii ATCC 19606 = settings: Acinetobacter baumannii, ATCC19606; MHB; read-out: Minimum Inhibitory Concentration, A. baumannii ATCC 19606
Procedure, shortened: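 CLSI microdilution; CAMHB; inoculum 2-8×10^5 CFU/mL from 3-5 h 37° C culture; 2-fold compound series; 16-20 h, 37° C; MIC = lowest well without visible growth.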

Row | SMILES | MIC (E. coli AG100) [µg/mL] | MIC [1] [µg/mL] | MIC (E. coli D22) [µg/mL] | MIC (E. coli 901C) [µg/mL] | MIC (P. aeruginosa ATCC 35151) [µg/mL] | MIC (E. coli AG100A) [µg/mL] | MIC [2] [µg/mL] | MIC (E. coli ATCC 25922) [µg/mL] | MIC [3] [µg/mL] | MIC [4] [µg/mL] | MIC (P. aeruginosa ATCC 27853) [µg/mL] | MIC (A. baumannii ATCC 19606) [µg/mL]
1 | CCN1CCN(C(=O)NC(C(=O)N[C@H]2Cc3cccc(C(=O)O)c3OB2O)c2cc(F)c(C(=O)O)cc2F)C(=O)C1=O (stereo partly drawn) [Example 137, (3R)-3-(2-(4-carboxy-2,5-difluorophenyl)-2-(4-ethyl-2,3-dioxopiperazine-1-carboxamido)acetamido)-2-hydroxy-3,4-dihydro-2H-benzo[e][1,2]oxaborinine-8-carboxylic acid] | 32 to 64 (≈ 54.4 to 109 µM) | 32 to 64 (≈ 54.4 to 109 µM) | 8 to 16 (≈ 13.6 to 27.2 µM) | < 0.25 | 0.5 to 1 (≈ 0.85 to 1.7 µM) | 8 to 16 (≈ 13.6 to 27.2 µM) | 8 to 16 (≈ 13.6 to 27.2 µM) | 32 to 64 (≈ 54.4 to 109 µM) | > 128 | > 128 | > 128 | > 128
2 | CCN1CCN(C(=O)NC(C(=O)N[C@H]2Cc3cccc(C(=O)O)c3OB2O)c2cc(Cl)c(C(=O)O)cc2F)C(=O)C1=O (stereo partly drawn) [Example 138, (3R)-3-(2-(4-carboxy-5-chloro-2-fluorophenyl)-2-(4-ethyl-2,3-dioxopiperazine-1-carboxamido)acetamido)-2-hydroxy-3,4-dihydro-2H-benzo[e][1,2]oxaborinine-8-carboxylic acid] | 32 to 64 (≈ 52.9 to 106 µM) | 32 to 64 (≈ 52.9 to 106 µM) | 2 to 4 (≈ 3.31 to 6.61 µM) | < 0.25 | 0.5 to 1 (≈ 0.827 to 1.65 µM) | 8 to 16 (≈ 13.2 to 26.5 µM) | 32 to 64 (≈ 52.9 to 106 µM) | 32 to 64 (≈ 52.9 to 106 µM) | > 128 | > 128 | > 128 | > 128
3 | CCN1CCN(C(=O)NC(C(=O)N[C@H]2Cc3cccc(C(=O)O)c3OB2O)c2cc(F)c(C(=O)O)c(F)c2)C(=O)C1=O (stereo partly drawn) [Example 141, (3R)-3-(2-(4-carboxy-3,5-difluorophenyl)-2-(4-ethyl-2,3-dioxopiperazine-1-carboxamido)acetamido)-2-hydroxy-3,4-dihydro-2H-benzo[e][1,2]oxaborinine-8-carboxylic acid] | 32 to 64 (≈ 54.4 to 109 µM) | 32 to 64 (≈ 54.4 to 109 µM) | 2 to 4 (≈ 3.4 to 6.8 µM) | < 0.25 | < 0.25 | 2 to 4 (≈ 3.4 to 6.8 µM) | 32 to 64 (≈ 54.4 to 109 µM) | 32 to 64 (≈ 54.4 to 109 µM) | > 128 | > 128 | > 128 | > 128
4 | NCCN1CCN(C(=O)NC(C(=O)N[C@H]2Cc3cccc(C(=O)O)c3OB2O)c2ccc(C(=O)O)cc2O)C(=O)C1=O (stereo partly drawn) [Example 142, (3R)-3-(2-(4-(2-aminoethyl)-2,3-dioxopiperazine-1-carboxamido)-2-(4-carboxy-2-hydroxyphenyl)acetamido)-2-hydroxy-3,4-dihydro-2H-benzo[e][1,2]oxaborinine-8-carboxylic acid] | 32 to 64 (≈ 54.9 to 110 µM) | 32 to 64 (≈ 54.9 to 110 µM) | 8 to 16 (≈ 13.7 to 27.4 µM) | 2 to 4 (≈ 3.43 to 6.86 µM) | 2 to 4 (≈ 3.43 to 6.86 µM) | 32 to 64 (≈ 54.9 to 110 µM) | > 128 | > 128 | > 128 | > 128 | > 128 | > 128
5 | CCN1CCN(C(=O)NC(C(=O)N[C@H]2Cc3cccc(C(=O)O)c3OB2O)c2ccc(C(=O)O)cc2F)C(=O)C1=O (stereo partly drawn) [Example 145, (3R)-3-(2-(4-carboxy-2-fluorophenyl)-2-(4-ethyl-2,3-dioxopiperazine-1-carboxamido)acetamido)-2-hydroxy-3,4-dihydro-2H-benzo[e][1,2]oxaborinine-8-carboxylic acid] | 32 to 64 (≈ 56.1 to 112 µM) | 32 to 64 (≈ 56.1 to 112 µM) | 2 to 4 (≈ 3.51 to 7.01 µM) | < 0.25 | < 0.25 | 8 to 16 (≈ 14 to 28.1 µM) | 8 to 16 (≈ 14 to 28.1 µM) | 32 to 64 (≈ 56.1 to 112 µM) | > 128 | > 128 | > 128 | > 128
6 | CCN1CCN(C(=O)NC(C(=O)N[C@H]2Cc3cccc(C(=O)O)c3OB2O)c2c(Cl)cc(C(=O)O)cc2Cl)C(=O)C1=O (stereo partly drawn) [Example 150, (3R)-3-(2-(4-carboxy-2,6-dichlorophenyl)-2-(4-ethyl-2,3-dioxopiperazine-1-carboxamido)acetamido)-2-hydroxy-3,4-dihydro-2H-benzo[e][1,2]oxaborinine-8-carboxylic acid] | > 128 | > 128 | 2 to 4 (≈ 3.22 to 6.44 µM) | < 0.25 | 0.5 to 1 (≈ 0.805 to 1.61 µM) | 32 to 64 (≈ 51.5 to 103 µM) | > 128 | > 128 | > 128 | > 128 | > 128 | > 128
